Assay results from patent US12310975B2, “Modulators of BCL6 proteolysis and associated methods of use” (Arvinas Operations, Inc., priority 2019, dated 2025).
Read-outs that look alike come from different tables or passages of the source.

Biological target: BCL6 (Homo sapiens (Human), UniProt P41182)
Assay: Immunofluorescence high content imaging of BCL6 degradation in T47D cells
Type: cell-based
Conditions: for DC50: class symbols A-D, read-out: EC50 (nM)*
Method in brief: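 T47D, 3 d compound exposure, 11-pt 3-fold series, top 0.1 or 1 μM final. Fix 4% PFA, Triton permeabilize, anti-BCL6 primary overnight 4 °C, Alexa-488 secondary. High-content imaging 10×, 4 fields/well, top-hat smoothing.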

Structure (SMILES)	Dmax (T47D cells) [%]	IC50 (T47D cells) [nM]	IC50 [nM]	Dmax (T47D) [%]	further results
CNC(=O)COc1cc2cc(Nc3nc(N4CCC(CN5[C@H](C)CN(c6cccc(C(=O)NC7CCC(=O)NC7=O)c6F)C[C@@H]5C)CC4)ncc3Cl)ccc2n(C)c1=O (mixture of isomers) [compound 370, rac-3-[(3R,5S)-4-({1-[5-chloro-4-({1-methyl-3-[(methylcarbamoyl)methoxy]-2-oxo-1,2-dihydroquinolin-6-yl}amino)pyrimidin-2-yl]piperidin-4-yl}methyl)-3,5-dimethylpiperazin-1-yl]-N-(2,6-dioxopiperidin-3-yl)-2-fluorobenzamide]	50 to 70	10 to 50			
CNC(=O)COc1cc2cc(Nc3nc(N4CCC5(CC4)CC(OC4CCN(c6cccc7c6CN(C6CCC(=O)NC6=O)C7=O)CC4)C5)ncc3Cl)ccc2n(C(C)C)c1=O (stereo not drawn) [compound 427, 2-{[6-({5-chloro-2-[2-({1-[2-(2,6-dioxopiperidin-3-yl)-1-oxo-2,3-dihydro-1H-isoindol-4-yl]piperidin-4-yl}oxy)-7-azaspiro[3.5]nonan-7-yl]pyrimidin-4-yl}amino)-2-oxo-1-(propan-2-yl)-1,2-dihydroquinolin-3-yl]oxy}-N-methylacetamide]	≥ 70	< 10			
CNC(=O)COc1cc2cc(Nc3nc(N4CCC(OC5CC6(C5)CN(c5ccc7c(c5)CN(C5CCC(=O)NC5=O)C7=O)C6)CC4)ncc3Cl)ccc2n(C(C)C)c1=O (stereo not drawn) [compound 412, 2-{[6-({5-chloro-2-[4-({2-[2-(2,6-dioxopiperidin-3-yl)-1-oxo-2,3-dihydro-1H-isoindol-5-yl]-2-azaspiro[3.3]heptan-6-yl}oxy)piperidin-1-yl]pyrimidin-4-yl}amino)-2-oxo-1-(propan-2-yl)-1,2-dihydroquinolin-3-yl]oxy}-N-methylacetamide]	≥ 70	< 10			
CNC(=O)COc1cc2cc(Nc3nc(N4CCN(C)CC4)ncc3Cl)ccc2n(CCCCOc2ccc3c(c2)C(=O)N(C2CCC(=O)NC2=O)C3=O)c1=O (stereo not drawn) [compound 238, 2-((6-((5-chloro-2-(4-methylpiperazin-1-yl)pyrimidin-4-yl)amino)-1-(4-((2-(2,6-dioxopiperidin-3-yl)-1,3-dioxoisoindolin-5-yl)oxy)butyl)-2-oxo-1,2-dihydroquinolin-3-yl)oxy)-N-methylacetamide]			≥ 100	< 50	
CNC(=O)COc1cc2cc(Nc3nc(N4CCC(OC5CC6(CCN(c7cccc(C(=O)NC8CCC(=O)NC8=O)c7OC)CC6)C5)CC4)ncc3Cl)ccc2n(C(C)C)c1=O (stereo not drawn) [compound 449, 3-[2-({1-[5-chloro-4-({3-[(methylcarbamoyl)methoxy]-2-oxo-1-(propan-2-yl)-1,2-dihydroquinolin-6-yl}amino)pyrimidin-2-yl]piperidin-4-yl}oxy)-7-azaspiro[3.5]nonan-7-yl]-N-(2,6-dioxopiperidin-3-yl)-2-methoxybenzamide]				50 to 70	
CC(=O)COc1cc2cc(Nc3nc(N4CCOC(COc5ccc6c(c5)C(=O)N(C5CCC(=O)NC5=O)C6=O)C4)ncc3Cl)ccc2n(C)c1=O (stereo not drawn) [compound 179, 5-((4-(5-chloro-4-((1-methyl-2-oxo-3-(2-oxopropoxy)-1,2-dihydroquinolin-6-yl)amino)pyrimidin-2-yl)morpholin-2-yl)methoxy)-2-(2,6-dioxopiperidin-3-yl)isoindoline-1,3-dione]			≥ 100	50 to 70	
CNC(=O)COc1cc2cc(Nc3nc(N4CCC(OCCOCCCOCCCOc5ccc6c(c5)CN(C5CCC(=O)NC5=O)C6=O)CC4)ncc3Cl)ccc2n(C)c1=O (stereo not drawn) [compound 147, 2-((6-((5-chloro-2-(4-(2-(3-(3-((2-(2,6-dioxopiperidin-3-yl)-1-oxoisoindolin-5-yl)oxy)propoxy)propoxy)ethoxy)piperidin-1-yl)pyrimidin-4-yl)amino)-1-methyl-2-oxo-1,2-dihydroquinolin-3-yl)oxy)-N-methylacetamide]					DC50: > 100 nM
CNC(=O)COc1cc2cc(Nc3nc(N4CCC(Oc5cccc(OCCCCOCCOCCOc6ccc7c(c6)CN(C6CCC(=O)NC6=O)C7=O)c5)CC4)ncc3Cl)ccc2n(C)c1=O (stereo not drawn) [compound 95, 2-((6-((5-chloro-2-(4-(3-(4-(2-(2-((2-(2,6-dioxopiperidin-3-yl)-1-oxoisoindolin-5-yl)oxy)ethoxy)ethoxy)butoxy)phenoxy)piperidin-1-yl)pyrimidin-4-yl)amino)-1-methyl-2-oxo-1,2-dihydroquinolin-3-yl)oxy)-N-methylacetamide]					DC50: > 100 nM
CNC(=O)COc1cc2cc(Nc3nc(N4C[C@@H](C)N(CC5CCN(c6ccc(C(=O)NC7CCC(=O)NC7=O)c(F)c6)CC5)[C@@H](C)C4)ncc3Cl)ccc2n(C)c1=O (stereo partly drawn) [compound 284, 4-(4-{[(2R,6S)-4-[5-chloro-4-({1-methyl-3-[(methylcarbamoyl)methoxy]-2-oxo-1,2-dihydroquinolin-6-yl}amino)pyrimidin-2-yl]-2,6-dimethylpiperazin-1-yl]methyl}piperidin-1-yl)-N-(2,6-dioxopiperidin-3-yl)-2-fluorobenzamide]			10 to 50	< 50	
CNC(=O)COc1cc2cc(Nc3nc(N4CCC(Cc5cn(CCOCCOCCOCC(=O)N[C@H](C(=O)N6C[C@H](O)C[C@H]6C(=O)N[C@@H](C)c6ccc(-c7scnc7C)cc6)C(C)(C)C)nn5)CC4)ncc3Cl)ccc2n(C)c1=O [compound 123, (2S,4R)-1-((S)-2-(tert-butyl)-14-(4-((1-(5-chloro-4-((1-methyl-3-(2-(methylamino)-2-oxoethoxy)-2-oxo-1,2-dihydroquinolin-6-yl)amino)pyrimidin-2-yl)piperidin-4-yl)methyl)-1H-1,2,3-triazol-1-yl)-4-oxo-6,9,12-trioxa-3-azatetradecanoyl)-4-hydroxy-N-((S)-1-(4-(4-methylthiazol-5-yl)phenyl)ethyl)pyrrolidine-2-carboxamide]					DC50: 50 to 100 nM
CNC(=O)COc1cc2cc(Nc3nc(N4C[C@@H](COc5ccc6c(c5)C(=O)N(C5CCC(=O)NC5=O)C6=O)O[C@H](C)C4)ncc3Cl)ccc2n(C(C)C)c1=O (stereo partly drawn) [compound 382, 2-{[6-({5-chloro-2-[(2S,6R)-2-({[2-(2,6-dioxopiperidin-3-yl)-1,3-dioxo-2,3-dihydro-1H-isoindol-5-yl]oxy}methyl)-6-methylmorpholin-4-yl]pyrimidin-4-yl}amino)-2-oxo-1-(propan-2-yl)-1,2-dihydroquinolin-3-yl]oxy}-N-methylacetamide]	50 to 70	50 to 100			
CNC(=O)COc1cc2cc(Nc3nc(N4CCC(N(C)[C@H]5CC[C@H](CN6CCN(c7ccc8c(c7)CN(C7CCC(=O)NC7=O)C8=O)CC6)CC5)CC4)ncc3Cl)ccc2n(C)c1=O (stereo partly drawn) [compound 101, 2-((6-((5-chloro-2-(4-(((1r,4r)-4-((4-(2-(2,6-dioxopiperidin-3-yl)-1-oxoisoindolin-5-yl)piperazin-1-yl)methyl)cyclohexyl) (methyl)amino)piperidin-1-yl)pyrimidin-4-yl)amino)-1-methyl-2-oxo-1,2-dihydroquinolin-3-yl)oxy)-N-methylacetamide]					DC50: < 10 nM

Second part, led by results:

Dmax (T47D cells) [%]	IC50 (T47D cells) [nM]	IC50 [nM]	Dmax (T47D) [%]	Structure (SMILES)	further results
		≥ 100		CNC(=O)COc1cc2cc(Nc3nc(N4CCC(OC5CCCN(c6ccc7c(c6)C(=O)N(C6CCC(=O)NC6=O)C7=O)CC5)CC4)ncc3Cl)ccc2n(C)c1=O (stereo not drawn) [compound 242, 2-((6-((5-chloro-2-(4-((1-(2-(2,6-dioxopiperidin-3-yl)-1,3-dioxoisoindolin-5-yl)azepan-4-yl)oxy)piperidin-1-yl)pyrimidin-4-yl)amino)-1-methyl-2-oxo-1,2-dihydroquinolin-3-yl)oxy)-N-methylacetamide]	
		< 10	50 to 70	CCn1c(=O)c(OCC(=O)NC)cc2cc(Nc3nc(N4CCN(C(C)(C)C5CCN(c6ccc7c(c6)CN(C6CCC(=O)NC6=O)C7=O)CC5)CC4)ncc3Cl)ccc21 (stereo not drawn) [compound 313, 2-{[6-({5-chloro-2-[4-(2-{1-[2-(2,6-dioxopiperidin-3-yl)-1-oxo-2,3-dihydro-1H-isoindol-5-yl]piperidin-4-yl}propan-2-yl)piperazin-1-yl]pyrimidin-4-yl}amino)-1-ethyl-2-oxo-1,2-dihydroquinolin-3-yl]oxy}-N-methylacetamide]	
		< 10	50 to 70	CCn1c(=O)c(OCC(=O)NC)cc2cc(Nc3nc(N4CCN(CC5CCN(c6ccc7c(c6)C(=O)N(C6CCC(=O)NC6=O)C7=O)CC5)CC4)ncc3Cl)ccc21 (stereo not drawn) [compound 250, 2-((6-((5-chloro-2-(4-((1-(2-(2,6-dioxopiperidin-3-yl)-1,3-dioxoisoindolin-5-yl)piperidin-4-yl)methyl)piperazin-1-yl)pyrimidin-4-yl)amino)-1-ethyl-2-oxo-1,2-dihydroquinolin-3-yl)oxy)-N-methylacetamide]	
		< 10	50 to 70	CNC(=O)COc1cc2cc(Nc3nc(N4CCC(CCOC5CN(c6ccc7c(c6)C(=O)N(C6CCC(=O)NC6=O)C7=O)C5)CC4)ncc3Cl)ccc2n(C)c1=O (stereo not drawn) [compound 247, 2-((6-((5-chloro-2-(4-(2-((1-(2-(2,6-dioxopiperidin-3-yl)-1,3-dioxoisoindolin-5-yl)azetidin-3-yl)oxy)ethyl)piperidin-1-yl)pyrimidin-4-yl)amino)-1-methyl-2-oxo-1,2-dihydroquinolin-3-yl)oxy)-N-methylacetamide]	
≥ 70	< 10			CNC(=O)COc1cc2cc(Nc3nc(N4CCC(CN5CC6(CCN(c7ccc8c(c7)C(=O)N(C7CCC(=O)NC7=O)C8=O)CC6)C5)CC4)ncc3Cl)ccc2n(C(C)C)c1=O (stereo not drawn) [compound 374, 2-{[6-({5-chloro-2-[4-({7-[2-(2,6-dioxopiperidin-3-yl)-1,3-dioxo-2,3-dihydro-1H-isoindol-5-yl]-2,7-diazaspiro[3.5]nonan-2-yl}methyl)piperidin-1-yl]pyrimidin-4-yl}amino)-2-oxo-1-(propan-2-yl)-1,2-dihydroquinolin-3-yl]oxy}-N-methylacetamide]	
50 to 70	10 to 50			CNC(=O)COc1cc2cc(Nc3nc(N4CCN(CCC5CCN(c6ccc7c(c6)C(=O)N(C6CCC(=O)NC6=O)C7=O)CC5)CC4)ncc3Cl)ccc2n(C)c1=O (stereo not drawn) [compound 322, 2-{[6-({5-chloro-2-[4-(2-{1-[2-(2,6-dioxopiperidin-3-yl)-1,3-dioxo-2,3-dihydro-1H-isoindol-5-yl]piperidin-4-yl}ethyl)piperazin-1-yl]pyrimidin-4-yl}amino)-1-methyl-2-oxo-1,2-dihydroquinolin-3-yl]oxy}-N-methylacetamide]	
